Reference: patent US11739077B2, “Small molecule inhibitors of ubiquitin specific protease 1 (USP1) and uses thereof” (Insilico Medicine IP Limited, priority 2021, dated 2023)

How the values were obtained:
[1] = target: Human recombinant USP1/UAF1 (Homo sapiens (Human), UniProt O94782); test: Enzymatic assay, USP1/UAF1 with Ubiquitin Rhodamine 110; format: biochemical; conditions: 2 nM USP1/UAF1, 500 nM Ubiquitin Rhodamine 110, 15 minutes preincubation at RT
Experimental: Human recombinant USP1/UAF1 expressed in baculovirus infected Sf21 cells were used (R&D, E-568-050). Test compound and/or vehicle was incubated with 2 nM of USP1/UAF1 in modified HEPES buffer pH 8.0 for 15 minutes at RT. The reaction was initiated by addition of 500 nM of Ubiquitin Rhodamine 110 (R&D, U-555-050) for kinetic reading. Slope change of fluorescence intensity was read spectrofluorimetrically at 485 nm/535 nm.

[2] = system: MDA-MB-436 cells; test: MDA-MB-436 breast cancer cell proliferation assay (CellTiter-Glo); format: cell-based; conditions: Homo sapiens, 168 h, 7 days
Experimental: MDA-MB-436 cells were grown in Leibovitz's L-15 medium with 10 ug/ml insulin, 16 ug/ml glutathione, 10% FBS. Cells were passaged at subconfluence after trypsinization and maintained in incubators at 37° C. in a humidified atmosphere with 5% CO2.
Cell proliferation was determined using CellTiter-Glo® Luminescent Cell Viability Assay (Promega, #G7573). MDA-MB-436 cells were seeded in 384-well plates and allowed to attach for 24 h. Compounds were added into 384-well plate by ECHO, and incubated at 37° C. in a humidified atmosphere with 5% CO2. After 7 days, CellTiter-Glo was added into 384 well plates, contents were mixed on an orbital shaker at […] for 2 min before centrifuging the plate for 2 min at 1000 rpm. After incubation at RT for 30 min, luminescence was read on envision.

Chain of Human recombinant USP1/UAF1 (O94782 whole entry): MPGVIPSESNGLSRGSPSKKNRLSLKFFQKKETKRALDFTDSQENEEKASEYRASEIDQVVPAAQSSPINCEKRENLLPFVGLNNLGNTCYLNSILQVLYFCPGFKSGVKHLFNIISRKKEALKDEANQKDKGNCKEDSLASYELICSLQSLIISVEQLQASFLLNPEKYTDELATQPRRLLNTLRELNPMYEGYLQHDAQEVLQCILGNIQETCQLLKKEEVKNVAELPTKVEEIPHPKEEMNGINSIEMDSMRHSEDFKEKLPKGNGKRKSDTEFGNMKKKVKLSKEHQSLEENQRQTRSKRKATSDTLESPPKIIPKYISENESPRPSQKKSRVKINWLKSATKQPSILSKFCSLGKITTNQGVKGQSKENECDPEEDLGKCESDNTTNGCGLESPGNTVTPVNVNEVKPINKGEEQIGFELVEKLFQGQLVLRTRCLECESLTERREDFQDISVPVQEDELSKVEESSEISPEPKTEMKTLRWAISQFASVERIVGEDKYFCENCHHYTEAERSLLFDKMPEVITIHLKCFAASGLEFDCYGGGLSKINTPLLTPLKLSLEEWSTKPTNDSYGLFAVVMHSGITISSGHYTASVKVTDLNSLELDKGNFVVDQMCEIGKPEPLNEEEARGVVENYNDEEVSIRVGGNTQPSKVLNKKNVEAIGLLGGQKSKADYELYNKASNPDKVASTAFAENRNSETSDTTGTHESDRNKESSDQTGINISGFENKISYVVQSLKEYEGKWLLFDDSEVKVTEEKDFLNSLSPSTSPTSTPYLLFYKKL
Chain of Human recombinant USP1/UAF1 (Q8TAF3 whole entry partner): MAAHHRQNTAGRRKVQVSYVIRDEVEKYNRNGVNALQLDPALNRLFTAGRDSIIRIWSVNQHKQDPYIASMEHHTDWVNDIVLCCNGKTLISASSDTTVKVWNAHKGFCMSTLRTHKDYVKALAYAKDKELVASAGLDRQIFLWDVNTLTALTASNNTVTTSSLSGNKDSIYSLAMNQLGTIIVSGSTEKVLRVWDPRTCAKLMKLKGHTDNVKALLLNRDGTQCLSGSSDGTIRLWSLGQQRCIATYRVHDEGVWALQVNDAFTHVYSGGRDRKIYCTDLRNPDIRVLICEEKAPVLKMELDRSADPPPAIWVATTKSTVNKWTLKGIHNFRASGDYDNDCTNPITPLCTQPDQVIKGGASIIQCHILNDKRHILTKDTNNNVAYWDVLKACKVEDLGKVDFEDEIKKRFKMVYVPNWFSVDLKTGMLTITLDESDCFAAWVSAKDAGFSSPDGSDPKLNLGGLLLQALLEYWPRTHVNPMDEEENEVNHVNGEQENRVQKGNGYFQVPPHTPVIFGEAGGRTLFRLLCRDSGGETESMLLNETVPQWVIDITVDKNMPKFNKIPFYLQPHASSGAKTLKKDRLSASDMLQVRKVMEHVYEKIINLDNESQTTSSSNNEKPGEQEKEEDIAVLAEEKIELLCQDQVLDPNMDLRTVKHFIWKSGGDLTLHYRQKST

Compound	IC50 [1]	IC50 [2]
COc1ncnc(C2CC2)c1-c1nn(C)c2c1CN(c1ccc(-c3nc(C(F)(F)F)cn3C)nn1)CC2 [Example 29, 3-(4-cyclopropyl-6-methoxypyrimidin-5-yl)-1-methyl-5-(6-(1-methyl-4-(trifluoromethyl)-1H-imidazol-2-yl)pyridazin-3-yl)-4,5,6,7-tetrahydro-1H-pyrazolo[4,3-c]pyridine]	50 to 1000 nM	50 to 1000 nM
[2H]C([2H])([2H])n1nc(-c2c(OC)ncnc2C2CC2)c2c1CCN(c1ccc(-c3nc(C(F)(F)F)cn3C)c(F)c1)C2 [Example 30, 3-(4-cyclopropyl-6-methoxypyrimidin-5-yl)-5-(3-fluoro-4-(1-methyl-4-(trifluoromethyl)-1H-imidazol-2-yl)phenyl)-1-(methyl-d3)-4,5,6,7-tetrahydro-1H-pyrazolo[4,3-c]pyridine]	< 50 nM	< 50 nM
COc1ncnc(C2CC2)c1-c1nn(C(F)F)c2c1CN(c1ccc(-c3nc(C(F)(F)F)cn3C)cn1)CC2 [Example 31, 3-(4-cyclopropyl-6-methoxypyrimidin-5-yl)-1-(difluoromethyl)-5-(5-(1-methyl-4-(trifluoromethyl)-1H-imidazol-2-yl)pyridin-2-yl)-4,5,6,7-tetrahydro-1H-pyrazolo[4,3-c]pyridine]	< 50 nM	50 to 1000 nM
COc1ncnc(C2CC2)c1-c1nn(C(F)F)c2c1CN(c1ccc(-c3nc(C(F)(F)F)cn3C(C)C)cn1)CC2 [Example 32, 3-(4-cyclopropyl-6-methoxypyrimidin-5-yl)-1-(difluoromethyl)-5-(5-(1-isopropyl-4-(trifluoromethyl)-1H-imidazol-2-yl)pyridin-2-yl)-4,5,6,7-tetrahydro-1H-pyrazolo[4,3-c]pyridine]	< 50 nM	50 to 1000 nM
